From US20240165243A1, “EGFR DEGRADERS AND METHODS OF USE” (BeiGene Switzerland GmbH, priority 2021, published 2024)

System: EGFR (Del19/T790M/C797S)
Test: Cell degradation HTRF assay, H1975-clone #28 cells
Assay type: cell-based
Conditions: H1975-clone #28 (Del19/T790M/C797S) cells, 16 h treatment; for DC50: HTRF, read-out: H1975-clone#28 DTC DC50; for H1975-clone#28 DTC Dmax (%): maximum percentage of degradation
Description: Cell Degradation of Example 124-189
H1975-#28 and H1975-#25 cells are treated with compounds diluted in 0.2% DMSO cell culture medium on day 2, incubate for 16 h, 37° C., 5% CO2. the final concentration of compounds in all assay is start with 10 uM, 5-fold dilution, total 8 doses were included.
After 16 h treatment, add HTRF lysis buffer to each well; seal the plate and incubate 1 hour at room temperature on a plate shaker; Once the cells are lysed, 16 μL of cell lysate are transferred to a PE 384-well HTRF detection plate; 4 μL of pre-mixed HTRF antibodies are added to each well; Cover the plate with a plate sealer, spin 1000 rpm for 1 min, Incubate overnight at room temperature; Read on BMG PheraStar with HTRF protocol (337 nm-665 nm-620 nm).
The inhibition (degradation) percentage of the compound was calculated by the following equation:
Inhibition percentage of Compound=100−100×(Signal−low control)/(High control−low control), wherein signal=each test compound group.
High control=Cell group with added DMSO and without compound, indicating microplate readings without EGFR degradation;
Dmax is the maximum percentage of inhibition (degradation).
The IC50 (DC50) value of a compound can be obtained by fitting the following equation
Y=Bottom+(TOP−Bottom)/(1+((IC50/X)^hillslope))
Wherein, X and Y are known values, and IC50, Hillslope, Top and Bottom are the parameters obtained by fitting with software. Y is the inhibition percentage (calculated from the equation), X is the concentration of the compound; IC50 is the concentration of the compound when the 50% inhibition is reached. The smaller the IC50 value is, the stronger the inhibitory ability of the compound is. Vice versa, the higher the IC50 value is, the weaker the ability the inhibitory ability of the compound is; Hillslope represents the slope of the fitted curve, generally around 1*; Bottom represents the minimum value of the curve obtained by data fitting, which is generally 0%±20%; Top represents the maximum value of the curve obtained by data fitting, which is generally 100%±20%. The experimental data were fitted by calculating and analyzing with Dotmatics data analysis software. When Dmax<50%, DC50 will be automatically assigned as larger than […].

## CCc1cc(Nc2ncc(Br)c(Nc3cnc4ccccc4c3P(C)(C)=O)n2)c(OC)cc1N1CCC(N2CCN(CCc3ccc(F)c4c3oc(=O)n4[C@H]3CCC(=O)NC3=O)CC2)CC1 [Example 126, (S)-3-(7-(2-(4-(1-(4-((5-bromo-4-((4-(dimethylphosphoryl)quinolin-3-yl)amino)pyrimidin-2-yl)amino)-2-ethyl-5-methoxyphenyl)piperidin-4-yl)piperazin-1-yl)ethyl)-4-fluoro-2-oxobenzo[d]oxazol-3(2H)-yl)piperidine-2,6-dione]
  DC50: 1.3 nM
  H1975-clone#28 DTC Dmax (%): 84%

## CCc1cc(Nc2ncc(Br)c(Nc3cnc4ccccc4c3P(C)(C)=O)n2)c(OC)cc1N1CCC(N2CCN(CCc3ccc(F)c4c3n(C)c(=O)n4C3CCC(=O)NC3=O)CC2)CC1 (stereo not shown) [Example 130, 3-(4-(2-(4-(1-(4-((5-bromo-4-((4-(dimethylphosphoryl)quinolin-3-yl)amino)pyrimidin-2-yl)amino)-2-ethyl-5-methoxyphenyl)piperidin-4-yl)piperazin-1-yl)ethyl)-7-fluoro-3-methyl-2-oxo-2,3-dihydro-1H-benzo[d]imidazol-1-yl)piperidine-2,6-dione]
  DC50: 1 nM
  H1975-clone#28 DTC Dmax (%): 86%

## CCc1cc(Nc2ncc(Br)c(Nc3cnc4ccccc4c3P(C)(C)=O)n2)c(OC)cc1N1CCC(N2CCN(CCc3ccc4c(c3)oc(=O)n4C3CCC(=O)NC3=O)CC2)CC1 (stereo not shown) [Example 132, 3-(6-(2-(4-(1-(4-((5-bromo-4-((4-(dimethylphosphoryl)quinolin-3-yl)amino)pyrimidin-2-yl)amino)-2-ethyl-5-methoxyphenyl)piperidin-4-yl)piperazin-1-yl)ethyl)-2-oxobenzo[d]oxazol-3(2H)-yl)piperidine-2,6-dione]
  DC50: 1 nM
  H1975-clone#28 DTC Dmax (%): 80%

## CCOc1cc(N2CCC(N3CCN(CCc4ccc5c(c4)oc(=O)n5C4CCC(=O)NC4=O)CC3)CC2)c(CC)cc1Nc1ncc(Br)c(Nc2cnc3cc(F)ccc3c2P(C)(C)=O)n1 (stereo not shown) [Example 133, 3-(6-(2-(4-(1-(4-((5-bromo-4-((4-(dimethylphosphoryl)-7-fluoroquinolin-3-yl)amino)pyrimidin-2-yl)amino)-5-ethoxy-2-ethylphenyl)piperidin-4-yl)piperazin-1-yl)ethyl)-2-oxobenzo[d]oxazol-3(2H)-yl)piperidine-2,6-dione]
  DC50: 3 nM
  H1975-clone#28 DTC Dmax (%): 71%

## CCc1cc(Nc2ncc(Br)c(Nc3cnc4cc(F)ccc4c3P(C)(C)=O)n2)c(OC)cc1N1CCC(N2CCN(CCc3ccc4c(c3)oc(=O)n4C3CCC(=O)NC3=O)CC2)CC1 (stereo not shown) [Example 134, 3-(6-(2-(4-(1-(4-((5-bromo-4-((4-(dimethylphosphoryl)-7-fluoroquinolin-3-yl)amino)pyrimidin-2-yl)amino)-2-ethyl-5-methoxyphenyl)piperidin-4-yl)piperazin-1-yl)ethyl)-2-oxobenzo[d]oxazol-3(2H)-yl)piperidine-2,6-dione]
  DC50: 0.8 nM
  H1975-clone#28 DTC Dmax (%): 79%

## CCc1cc(Nc2ncc(Br)c(Nc3cnc4ccccc4c3P(C)(C)=O)n2)c(OC)cc1N1CCC(N2CCN(CCc3cccc4c3n(CC)c(=O)n4C3CCC(=O)NC3=O)CC2)CC1 (stereo not shown) [Example 135, 3-(4-(2-(4-(1-(4-((5-bromo-4-((4-(dimethylphosphoryl)quinolin-3-yl)amino)pyrimidin-2-yl)amino)-2-ethyl-5-methoxyphenyl)piperidin-4-yl)piperazin-1-yl)ethyl)-3-ethyl-2-oxo-2,3-dihydro-1H-benzo[d]imidazol-1-yl)piperidine-2,6-dione]
  DC50: 0.9 nM
  H1975-clone#28 DTC Dmax (%): 83%

## CCOc1cc(N2CCC(N3CCN(CCc4cc(F)c(F)c5c4oc(=O)n5C4CCC(=O)NC4=O)CC3)CC2)c(CC)cc1Nc1ncc(Br)c(Nc2cnc3ccccc3c2P(C)(C)=O)n1 (stereo not shown) [Example 136, 3-(7-(2-(4-(1-(4-((5-bromo-4-((4-(dimethylphosphoryl)quinolin-3-yl)amino)pyrimidin-2-yl)amino)-5-ethoxy-2-ethylphenyl)piperidin-4-yl)piperazin-1-yl)ethyl)-4,5-difluoro-2-oxobenzo[d]oxazol-3(2H)-yl)piperidine-2,6-dione]
  DC50: 0.6 nM
  H1975-clone#28 DTC Dmax (%): 81%

## CCOc1cc(N2CCC(N3CCN(CCc4c(F)ccc5c4n(C)c(=O)n5C4CCC(=O)NC4=O)CC3)CC2)c(CC)cc1Nc1ncc(Br)c(Nc2cnc3ccccc3c2P(C)(C)=O)n1 (stereo not shown) [Example 137, 3-(4-(2-(4-(1-(4-((5-bromo-4-((4-(dimethylphosphoryl)quinolin-3-yl)amino)pyrimidin-2-yl)amino)-5-ethoxy-2-ethylphenyl)piperidin-4-yl)piperazin-1-yl)ethyl)-5-fluoro-3-methyl-2-oxo-2,3-dihydro-1H-benzo[d]imidazol-1-yl) piperidine-2,6-dione]
  DC50: 2.1 nM
  H1975-clone#28 DTC Dmax (%): 86%

## CCOc1cc(N2CCC(N3CCN(CCc4cccc5c4C(C)(C)C(=O)N5C4CCC(=O)NC4=O)CC3)CC2)c(CC)cc1Nc1ncc(Br)c(Nc2cnc3ccccc3c2P(C)(C)=O)n1 (stereo not shown) [Example 138, 3-(4-(2-(4-(1-(4-((5-bromo-4-((4-(dimethylphosphoryl)quinolin-3-yl)amino)pyrimidin-2-yl)amino)-5-ethoxy-2-ethylphenyl)piperidin-4-yl)piperazin-1-yl)ethyl)-3,3-dimethyl-2-oxoindolin-1-yl)piperidine-2,6-dione]
  DC50: 3 nM
  H1975-clone#28 DTC Dmax (%): 83%

## CCOc1cc(N2CCC(N3CCN(CCc4ccc5c(c4)oc(=O)n5C4CCC(=O)NC4=O)CC3)CC2)c(CC)cc1Nc1ncc(Br)c(Nc2cnc3ccccc3c2P(C)(C)=O)n1 (stereo not shown) [Example 139, 3-(6-(2-(4-(1-(4-((5-bromo-4-((4-(dimethylphosphoryl)quinolin-3-yl)amino)pyrimidin-2-yl)amino)-5-ethoxy-2-ethylphenyl)piperidin-4-yl)piperazin-1-yl)ethyl)-2-oxobenzo[d]oxazol-3(2H)-yl)piperidine-2,6-dione]
  DC50: 1.5 nM
  H1975-clone#28 DTC Dmax (%): 75%

## CCOc1cc(N2CCC(N3CCN(CCc4cccc5c4n(C)c(=O)n5C4CCC(=O)NC4=O)CC3)CC2)c(CC)cc1Nc1ncc(Br)c(Nc2cnc3ccccc3c2P(C)(C)=O)n1 (stereo not shown) [Example 140, 3-(4-(2-(4-(1-(4-((5-bromo-4-((4-(dimethylphosphoryl)quinolin-3-yl)amino)pyrimidin-2-yl)amino)-5-ethoxy-2-ethylphenyl)piperidin-4-yl)piperazin-1-yl)ethyl)-3-methyl-2-oxo-2,3-dihydro-1H-benzo[d]imidazol-1-yl)piperidine-2,6-dione]
  DC50: 4.4 nM
  H1975-clone#28 DTC Dmax (%): 84%

## CCc1cc(Nc2ncc(Br)c(Nc3cnc4ccccc4c3P(C)(C)=O)n2)c(OC)cc1N1CCC(N2CCN(CCc3ccc4c(oc(=O)n4C4CCC(=O)NC4=O)c3F)CC2)CC1 (stereo not shown) [Example 142, 3-(6-(2-(4-(1-(4-((5-bromo-4-((4-(dimethylphosphoryl)quinolin-3-yl)amino)pyrimidin-2-yl)amino)-2-ethyl-5-methoxyphenyl)piperidin-4-yl)piperazin-1-yl)ethyl)-7-fluoro-2-oxobenzo[d]oxazol-3(2H)-yl)piperidine-2,6-dione]
  DC50: 0.9 nM
  H1975-clone#28 DTC Dmax (%): 81%

## CCOc1cc(N2CCC(N3CCN(CCc4ccc5c(c4)oc(=O)n5C4CCC(=O)NC4=O)CC3)CC2)c(CC)cc1Nc1ncc(Br)c(Nc2cnc3cc(F)ccc3c2P(C)(C)=O)n1 (stereo not shown) [Example 149, 3-(6-(2-(4-(1-(4-((5-bromo-4-((4-(dimethylphosphoryl)-7-fluoroquinolin-3-yl)amino)pyrimidin-2-yl)amino)-5-ethoxy-2-ethylphenyl)piperidin-4-yl)piperazin-1-yl)ethyl)-2-oxobenzo[d]oxazol-3(2H)-yl)piperidine-2,6-dione]
  DC50: 1.3 nM
  H1975-clone#28 DTC Dmax (%): 73%

## CCc1cc(Nc2ncc(Br)c(Nc3cnc4cc(F)ccc4c3P(C)(C)=O)n2)c(OC)cc1N1CCC(N2CCN(CCc3cc(F)c4c(c3)oc(=O)n4[C@H]3CCC(=O)NC3=O)CC2)CC1 [Example 151, (S)-3-(6-(2-(4-(1-(4-((5-bromo-4-((4-(dimethylphosphoryl)-7-fluoroquinolin-3-yl)amino)pyrimidin-2-yl)amino)-2-ethyl-5-methoxyphenyl)piperidin-4-yl)piperazin-1-yl)ethyl)-4-fluoro-2-oxobenzo[d]oxazol-3(2H)-yl)piperidine-2,6-dione]
  DC50: 1.1 nM
  H1975-clone#28 DTC Dmax (%): 79%
